Results published in patent publication US8614246B2, “Indole derivatives for treating neurodegenerative diseases” (Centre National de la Recherche Scientifique (CNRS), priority 2009, dated 2013).

Key:
[1] = Test with ABTS (anti-oxidant capacity, hydroxyl radicals generated by Fenton's reaction); format: biochemical; conditions: 30 minutes at ambient temperature, range 10 nM to 1 mM, read-out: IC50 ± SEM (concentration at which 50% of hydroxyl radicals have been reduced) (converted)
Excerpt: ABTS or 2,2′-azino-bis-(3-ethylbenzthiazoline-6-sulfonic) acid is a coloured indicator of the presence of hydroxyl radicals in solution. The attack of a hydroxyl radical on ABTS generates the formation of an ATBS^+. cation radical (Equation 1). This coloured entity makes the absorbance (Abs) of the solution equal to 450 nm. ABTS+HO. ? ABTS^+. +HO^− Equation 1
During the test, hydroxyl radicals are generated by Fenton's reaction in the presence of iron and hydrogen peroxide (Equation 2) H2O2+Fe^2+ ? HO. +HO^−+Fe^3+ Equation 2
When a radical trap or antioxidant is present in solution, competition with ABTS is set up for reduction of hydroxyl radicals, which reduces the absorbance (Abs) at 450 nm.
The percentage of hydroxyl radicals converted into hydroxyl ions (% conversion) by the compound of interest may be calculated using Formula 1: […]
The anti-oxidant capacity of a compound may then be expressed in the form of IC50 that reflects the concentration at which 50% of hydroxyl radicals have been reduced by the tested compound.
Thus, the compounds to be tested and Trolox® were solubilised in ethanol so as to obtain solutions at 1 mM. We used cascade dilutions to obtain a concentration range varying from 1 mM to 10 nM. 90 μL of a 1:1 water-ethanol mixture was then added onto an ELISA 96-well plate, followed by 15 μL of an aqueous solution of ABTS at 1 mM, 15 μL of an aqueous solution of Fe2SO4 at 0.5 mM, 15 μL of each compound to be tested at different concentrations, and then 15 μl of an aqueous solution of hydrogen peroxide at 100 mM. The mixtures thus obtained were stirred at ambient temperature sheltered from air for 30 minutes, and the value of the absorbance at […] was then measured. The capacity of each compound to reduce hydroxyl radicals is determined by the reduction in absorbance at 450 nm, the control solution being composed of pure ethanol. Therefore, the ABTS test was made in comparison with Trolox®. The same ranges from 10 nm to 1 mM of indoles 1a, 1c, 1g, 1i, 2a, 4c, 2g, 2h and 2i were tested.

[2] = test system: dopaminergic neurons (TH+ neurons) in primary cultures of ventral mesencephalon; experiment: Neuritogenesis: total neuritic length per dopaminergic neuron in primary cultures of ventral mesencephalon; format: cell-based; conditions: Product 10 nM, 8 days culture, rat embryo ventral mesencephalon; untreated control = 100
Experimental: (§1) Dissection. Dissection consists of extracting embryos from the uterus of a rat after fifteen days of gestation. The brain of each embryo is then dissected under magnifying binoculars in order to extract the ventral mesencephalus.
(§2) Seeding. Mesencephalons are grouped in a flask containing 2 mL of L15 medium and then mechanically dissociated (30 repeat operations), 5 mL of L15 medium are added. The suspension is allowed to stand for 8 minutes. The 5 mL float is then recovered in a new flask and the cells are dissociated again (30 repeat operations). 5 mL of L15 is added again and the suspension is left to stand for 8 minutes. The 5 mL float is added to the previous float. The cells thus extracted are then centrifuged for 5 minutes at 1000 rpm^−1. The cell sediment is dissolved in a Neurobasal medium supplemented with 1% of B27, 1% of glutamine and 1% of a mixture of penicillin and streptomycin. The cells are then seeded at an appropriate dilution (0.6 embryos per well in 24-well plates and 0.4 per well in 48-well plates). The cultures are incubated at 37° C. in a wet atmosphere enriched with 5% CO2 in 24-well or 48-well plates.
(§3) Treatment. After 24 hours, two-thirds of the medium in each well is replaced by a new medium enriched with the product to be tested at the appropriate dilution. The medium is replaced in the same way after 4 days of culture.
(§4) Immunohistochemistry. After 8 days culture, the cells are fixed by a solution of 4% formaldehyde and then washed three times with PBS. The cells are then submitted to anti-tyrosine hydroxylase (TH) immunohistochemistry, developed by a secondary antibody coupled to a fluorophore emitting in the red (Cy3).
(§5) Analyses. Neuroprotection is evaluated by counting positive TH neurons with 10 fields per well directly under an inverted fluorescence microscope, reported as a percentage of the untreated control. Experiments are done on three wells per condition. Three independent experiments are done under these conditions. The total neuritic length per cell is calculated using Explora Nova's Neurite Outgrowth software on 60 to 100 neurons photographed independently per condition.
(§6) Primary cultures of ventral mesencephalon of rat embryos after 15.5 days of gestation under conditions causing spontaneous death of dopaminergic neurons, are maintained in the presence or absence of the compounds to be tested for 8 days. After fixing, the cultures are submitted to immunocytochemistry directed against tyrosine hydroxylase, a specific marker of dopaminergic neurons.
Neuritogenesis is quantified by measuring the total neuritic length per dopaminergic neuron (neuritic length/TH^+ neuron) using an image analyser on a minimum of sixty photographed neurons per condition (10-30% of all dopaminergic neurons).
(§7) All experiments were done by comparison with a positive control, dibutyryl-AMP cyclic (db-AMPc) (Mourlevat S. et al. Mol. Pharmacol. 2003, 64 (3), 578-586).

[3] = test system: dopaminergic neurons (TH+ neurons) in primary cultures of ventral mesencephalon; experiment: Neuroprotection: counting of remaining TH+ neurons in primary cultures of ventral mesencephalon (spontaneous death of dopaminergic neurons); format: cell-based; conditions: Product 10 nM, 8 days culture, rat embryo ventral mesencephalon; untreated control = 100
Experimental: as §1, §2, §3, §4, §5, §6
The neuroprotective potential of each compound is then estimated by counting the number of remaining neurons (TH^+ neurons) under a fluorescence microscope. The results for the different treatments are expressed as a percentage of the number of neurons remaining relative to untreated cultures (Control).
as §7

Q: For `CCCCCCCCCCCCCCCCNCCc1c[nH]c2ccccc12` [Compound 2c, N-(2-(1H-indol-3-yl)ethyl)hexadecan-1-amine], which IC50 [1] is on record?
A: Its IC50 is 620 µM.

Q: What about the “Neuritic length/TH+ neuron, % relative to control ± SEM” value [2] of the same compound?
A: Its value is 197.0 ± 14.0 %.

Q: And the “TH+ neurons, % relative to control ± SEM” value [3]?
A: The value was 131.9 ± 4.7 %.
